Experimental data reported in patent US20260207565A1, “COMPOUNDS THAT INHIBIT PKMYT1” (Exelixis, Inc., priority 2022, published 2026).

Experiments:
PKMYT1 = target: T1, PKMYT1 (Homo sapiens, UniProt Q99640); experiment: ADP-Glo PKMYT1 ATP-depletion assay; settings: 50 nM PKMYT1, 13.3 nM CDK1, 88 μM ATP, 120 minutes at RT, read-out: Biochemical IC50
T1 construct: PKMYT1 (93 kD, full length, N-terminal GST tag from Signal Chem); GST (N); purchased Signal Chem
T1 sequence (Q99640 1-499): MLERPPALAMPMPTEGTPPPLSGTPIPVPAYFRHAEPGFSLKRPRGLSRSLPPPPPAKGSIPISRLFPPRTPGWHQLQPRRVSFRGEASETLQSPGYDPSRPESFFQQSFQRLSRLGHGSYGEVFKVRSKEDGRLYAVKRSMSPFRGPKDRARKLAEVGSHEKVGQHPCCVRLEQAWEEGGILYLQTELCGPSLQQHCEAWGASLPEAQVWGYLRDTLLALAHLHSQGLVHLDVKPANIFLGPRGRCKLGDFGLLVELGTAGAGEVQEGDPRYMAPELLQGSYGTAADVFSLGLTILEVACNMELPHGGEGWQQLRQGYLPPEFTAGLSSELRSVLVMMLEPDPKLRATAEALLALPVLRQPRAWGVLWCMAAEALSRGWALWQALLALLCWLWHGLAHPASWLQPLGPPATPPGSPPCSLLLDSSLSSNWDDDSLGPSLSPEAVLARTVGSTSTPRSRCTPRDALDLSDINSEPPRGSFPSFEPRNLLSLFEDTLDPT
Description: (§1) Biochemical IC50 values were determined via ADP-Glo™ assay. Cellular IC50 values were determined via AlphaLISA assay.
ADP-Glo™ PKMYT1 ATP-depletion assay. The activity of PKMYT1 is measured using a luciferase-luciferin based ATP detection reaction to quantify ATP depletion resulting from kinase-catalyzed phosphoryl transfer to CDK1 or autophosphorylation of PKMYT1. The ADP generated as a byproduct of the reaction is converted to ATP and used to drive a luciferase reaction. Test compounds were dissolved in DMSO and dispensed into Corning 3824 384-well plates prior to the experiment such that the final DMSO concentration was <10%. To the compounds was added 3 μL of PKMYT1 (93 kD, full length, N-terminal GST tag from Signal Chem). The reaction was started by the addition of 2 μL of CDK1 (58 kDa, full length, N-terminal GST tag from Signal Chem) and ATP in assay buffer (50 mM Hepes, 40 mM NaCl, 10 mM MgCl2, 1 mM DTT, 0.1 mg/mL BSA, 2.5 mM MnCl2). Final assay concentrations were 50 nM PKMYT1, 13.3 nM CDK1, and 88 μM ATP. Plates were centrifuged for 1 minute at 1000 RPM and incubated at RT for 120 minutes. After the incubation period, ADP-Glo™ reagent was added and the plates were incubated for another 40 minutes before finally adding the kinase detection reagent, 30 minutes after the addition, plates were placed on a PHERAstar® plate reader and read using the Luminescence Protocol, integration time at 0.5 seconds.

[1] = tested on: phosphorylation of CDK1 at Thr14 in HCC1806 cells; experiment: Cell lysate AlphaLISA assay measuring inhibition of phosphorylation of CDK1 Thr14; type: cell-based; settings: Homo sapiens, HCC1806, 4 h, compounds incubated 4 hours, AlphaLISA SureFire Ultra CDK1 Thr14, read-out: Cellular IC50
Description: as §1
Cell lysate AlphaLISA® assay measuring inhibition of phosphorvlation of CDK1 Thr14. Inhibition of phosphorylation of CDK1 at Thr14 was determined using AlphaLISAn SureFire® Ultra™ Kit from Perkin Elmer (ALSU-PCDK1-A10K). HCC1806 cells were seeded at 2K cells per well (50 μl/well) in 384-well plates (Corning 3570) and stored overnight at 37° C. and 5% CO2. The following day, the compounds dissolved in DMSO were introduced to the cells and incubated for 4 hours at 37° C. and 5% CO2. The cells were then washed with PBS using Blue® Washer and 10 μl of lysis buffer containing protease inhibitor was added. The plate was placed on an orbital shaker (at 4° C.) for 30 minutes and stored overnight at −80° C. for complete lysing. The next day, the plates were thawed at room temperature for at least 30 min. Reagents were prepared in a dimmed light setting (<100 lumens). The assay was run by first adding 5 μl of the acceptor mix (reaction buffer 1: reaction buffer 2:activation buffer:acceptor beads 47:47:4:2), covering the plate with foil, shaking for 2 minutes, and incubating at RT for 60 minutes. The donor mix (dilution buffer:donor beads 47:3) was then added at 5 μl per well, placed on the shaker for 2 minutes and incubated at RT for 60 minutes before reading the plates on a PHERAstar® plate reader. The results were normalized to DMSO (0% Inhibition) and 3 μM of reference compound.

Compound: Cc1ccc(O)c(C)c1-c1c(N)c(C(N)=O)nc2c1c(C(N)=O)nn2C (atropisomer, axis not shown; (M)) [Compound 74, (M)-5-Amino-4-(3-hydroxy-2,6-dimethylphenyl)-1-methyl-1H-pyrazolo[3,4-b]pyridine-3,6-dicarboxamide]
- IC50 (PKMYT1): < 0.05 µM
- IC50 [1]: < 0.05 µM

Compound: CCn1cc(C(N)=O)c2c(-c3c(C)ccc(O)c3C)c(N)c(C(N)=O)nc21 (atropisomer, axis not shown; (M)) [Compound 76, (M)-5-Amino-1-ethyl-4-(3-hydroxy-2,6-dimethylphenyl)-1H-pyrrolo[2,3-b]pyridine-3,6-dicarboxamide]
- IC50 (PKMYT1): < 0.05 µM
- IC50 [1]: < 0.05 µM

Compound: Cc1c(O)cccc1-c1c(N)c(C(N)=O)nc2c1c(C#N)cn2-c1ncccc1F (atropisomer, axis not shown; (M)) [Compound 78, (M)-5-Amino-3-cyano-1-(3-fluoropyridin-2-yl)-4-(3-hydroxy-2-methylphenyl)-1H-pyrrolo[2,3-b]pyridine-6-carboxamide]
- IC50 (PKMYT1): < 0.05 µM
- IC50 [1]: < 0.05 µM

Compound: Cc1c(O)cccc1-c1c(N)c(C(N)=O)nc2c1c(-c1c[nH]nn1)cn2C (atropisomer, axis not shown; (M)) [Compound 90, (M)-5-amino-4-(3-hydroxy-2-methylphenyl)-1-methyl-3-(1H-1,2,3-triazol-4-yl)-1H-pyrrolo[2,3-b]pyridine-6-carboxamide]
- IC50 (PKMYT1): < 0.05 µM
- IC50 [1]: < 0.05 µM

Compound: CCn1cc(-c2cn[nH]c2)c2c(-c3cccc(O)c3C)c(N)c(C(N)=O)nc21 (atropisomer, axis not shown; (M)) [Compound 91, (M)-5-amino-1-ethyl-4-(3-hydroxy-2-methylphenyl)-3-(1H-pyrazol-4-yl)-1H-pyrrolo[2,3-b]pyridine-6-carboxamide]
- IC50 (PKMYT1): < 0.05 µM
- IC50 [1]: < 0.05 µM

Compound: CCn1cc(C#N)c2c(-c3cccc(O)c3C)c(N)c(C(N)=O)nc21 (atropisomer, axis not shown; (M)) [Compound 92, (M)-5-amino-3-cyano-1-ethyl-4-(3-hydroxy-2-methylphenyl)-1H-pyrrolo[2,3-b]pyridine-6-carboxamide]
- IC50 (PKMYT1): < 0.05 µM
- IC50 [1]: < 0.05 µM

Compound: CCn1cc(C(N)=O)c2c(-c3cccc(O)c3C)c(N)c(C(N)=O)nc21 (atropisomer, axis not shown; (M)) [Compound 96, (M)-5-amino-1-ethyl-4-(3-hydroxy-2-methylphenyl)-1H-pyrrolo[2,3-b]pyridine-3,6-dicarboxamide]
- IC50 (PKMYT1): < 0.05 µM
- IC50 [1]: < 0.05 µM

Compound: Cc1ccc(O)c(C)c1-c1cc(C(N)=O)nc2c1c(C#N)cn2-c1ncccc1F (atropisomer, axis not shown; (P)) [Compound 68, (P)-3-Cyano-1-(3-fluoropyridin-2-yl)-4-(3-hydroxy-2,6-dimethylphenyl)-1H-pyrrolo[2,3-b]pyridine-6-carboxamide]
- IC50 (PKMYT1): < 0.05 µM
- IC50 [1]: < 0.05 µM

Compound: Cc1ccc(O)c(C)c1-c1c(N)c(C(N)=O)cc2c1ncn2C(F)(F)F (atropisomer, axis not shown; (P)) [Compound 70, (P)-5-Amino-4-(3-hydroxy-2,6-dimethylphenyl)-1-(trifluoromethyl)-1H-benzo[d]imidazole-6-carboxamide]
- IC50 (PKMYT1): < 0.05 µM
- IC50 [1]: < 0.05 µM

Compound: CCn1cc(-c2ncon2)c2c(-c3c(C)ccc(O)c3C)cc(C(N)=O)nc21 (atropisomer, axis not shown; (P)) [Compound 71, (P)-1-Ethyl-4-(3-hydroxy-2,6-dimethylphenyl)-3-(1,2,4-oxadiazol-3-yl)-1H-pyrrolo[2,3-b]pyridine-6-carboxamide]
- IC50 (PKMYT1): < 0.05 µM
- IC50 [1]: < 0.05 µM

Compound: Cc1ccc(O)c(C)c1-c1c(N)c(C(N)=O)nc2c1ncn2C(F)F (atropisomer, axis not shown; (P)) [Compound 72, (P)-6-Amino-3-(difluoromethyl)-7-(3-hydroxy-2,6-dimethylphenyl)-3H-imidazo[4,5-b]pyridine-5-carboxamide]
- IC50 (PKMYT1): < 0.05 µM
- IC50 [1]: < 0.05 µM

Compound: Cc1ccc(O)c(C)c1-c1c(N)c(C(N)=O)nc2c1ncn2C1CC(F)(F)C1 (atropisomer, axis not shown; (P)) [Compound 75, (P)-6-amino-3-(3,3-difluorocyclobutyl)-7-(3-hydroxy-2,6-dimethylphenyl)-3H-imidazo[4,5-b]pyridine-5-carboxamide]
- IC50 (PKMYT1): < 0.05 µM
- IC50 [1]: < 0.05 µM

Compound: CCn1cnc2c(-c3c(C)ccc(O)c3C)c(N)c(C(N)=O)nc21 (atropisomer, axis not shown; (P)) [Compound 81, (P)-6-amino-3-ethyl-7-(3-hydroxy-2,6-dimethylphenyl)-3H-imidazo[4,5-b]pyridine-5-carboxamide]
- IC50 (PKMYT1): < 0.05 µM
- IC50 [1]: < 0.05 µM

Compound: Cc1ccc(O)c(C)c1-c1c(N)c(C(N)=O)cc2c1ncn2C(F)F (atropisomer, axis not shown; (P)) [Compound 85, (P)-5-amino-1-(difluoromethyl)-4-(3-hydroxy-2,6-dimethylphenyl)-1H-benzo[d]imidazole-6-carboxamide]
- IC50 (PKMYT1): < 0.05 µM
- IC50 [1]: < 0.05 µM

Compound: Cc1ccc(O)c(C)c1-c1c(N)c(C(N)=O)nc2c1ncn2CC(F)(F)F (atropisomer, axis not shown; (P)) [Compound 86, (P)-6-amino-7-(3-hydroxy-2,6-dimethylphenyl)-3-(2,2,2-trifluoroethyl)-3H-imidazo[4,5-b]pyridine-5-carboxamide]
- IC50 (PKMYT1): < 0.05 µM
- IC50 [1]: < 0.05 µM

Compound: Cc1ccc(O)c(C)c1-c1c(N)c(C(N)=O)cc2c1ncn2-c1ncccc1F (atropisomer, axis not shown; (P)) [Compound 87, (P)-5-amino-1-(3-fluoropyridin-2-yl)-4-(3-hydroxy-2,6-dimethylphenyl)-1H-benzo[d]imidazole-6-carboxamide]
- IC50 (PKMYT1): < 0.05 µM
- IC50 [1]: < 0.05 µM

Compound: Cc1ccc(O)c(C)c1-c1cc(C(N)=O)nc2c1c(C#N)cn2C(C)C (atropisomer, axis not shown; (P)) [Compound 88, (P)-3-cyano-4-(3-hydroxy-2,6-dimethylphenyl)-1-isopropyl-1H-pyrrolo[2,3-b]pyridine-6-carboxamide]
- IC50 (PKMYT1): < 0.05 µM
- IC50 [1]: < 0.05 µM

Compound: Cc1ccc(O)c(C)c1-c1cc(C(N)=O)nc2c1c(Cl)cn2C (single isomer, unassigned) [Compound 31]
- IC50 (PKMYT1): ≥ 5 µM

Compound: Cc1ccc(O)c(C)c1-c1cc(C(N)=O)nc2c1c(Cl)cn2C (single isomer, unassigned) [Compound 32]
- IC50 (PKMYT1): 0.05 to 0.5 µM

Compound: Cc1ccc(O)c(C)c1-c1cc(C(N)=O)nc2c1c(C#N)c(C)n2C (single isomer, unassigned) [Compound 33]
- IC50 (PKMYT1): 1 to 5 µM

Compound: Cc1ccc(O)c(C)c1-c1cc(C(N)=O)nc2c1c(C#N)c(C)n2C (single isomer, unassigned) [Compound 34]
- IC50 (PKMYT1): < 0.05 µM

Compound: Cc1c(Cl)cncc1-c1c(N)c(C(N)=O)nc2c1c(C#N)cn2C [Compound 10]
- IC50 (PKMYT1): 0.05 to 0.5 µM

Compound: Cc1c(Cl)cncc1-c1c(N)c(C(N)=O)nc2c1c(C#N)cn2C [Compound 11]
- IC50 (PKMYT1): < 0.05 µM
